Test results as given in patent US7312248B2, “Control of parasites in animals by the use of novel trifluoromethanesulfonanilide oxime ether derivatives” (Schering-Plough Animal Health Corporation, priority 2004, dated 2007).
Read-outs that look alike come from different tables or passages of the source.

Assays:
Format in all cases: in vivo
[1] = system: Brown Dog Tick (Rhipicephalus sanguineus); experiment: Rapid screening protocol for topical application on brown dog ticks; conditions: for R. sanguineus Mortality (%) 48 h: Laboratory 2 F data; for mortality at 5 µg/tick: Rhipicephalus sanguineus, read-out: R. sanguineus Mortality (%) 24 h; for mortality at 5 µg/tick / Rhipicephalus sanguineus Mortality (%) 24 h: topical, 24 h; for Rhipicephalus sanguineus Mortality (%) 24 h: 10 μg of active per tick in 1 μL acetone, adult ticks, Laboratory 1 E data
Protocol: d) Rapid Screening Protocol for Topical Application on Brown Dog Ticks (Rhipicephalus sanguineus)
The aim of the test was to determine the presence of significant acaricidal activity in sample compounds or formulations when applied topically on brown dog ticks. A tick was defined as dead if it gave no apparent response when touched lightly and observed for 1 minute. […] Both permethrin and fipronil were employed as reference compounds. The insect species tested was the Brown Dog Tick (Rhipicephalus sanguineus). Mixed sex adult ticks were used for tests. The strain used was cultured by von Berky Veterinary Services, Woody Point, QLD, AU and supplied as unfed adult ticks (mixed sex). Ticks were maintained in controlled conditions (temp. 18°+2° C., humidity 75±5% RH).
Temperature was maintained at 25±1° C. and the humidity was ambient. […] Ticks were each treated on the abdomen with 1 μL of a single dose level of test sample in acetone; ten ticks were treated with solvent only (acetone) in each test. Tests were replicated 4 times (total of 40 ticks treated). […]

[2] = system: Haemonchus contortus; experiment: Haemonchus contortus larvacidal (larval development) assay; conditions: 144 h, read-out: Haemonchus contortus LD99
Outline: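 Nematode eggs placed on agar containing compound (12 two-fold dilutions, final 0.024–50 μg/ml) and left 6 days to develop to L3. LD99 is the lowest concentration inhibiting development of 99% of larvae, derived from well titre (2^n−1) and top concentration.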

[3] = system: cat flea (Ctenocephalides felis); experiment: Ctenocephalides felis adulticide assay: dose response (LC50)
Excerpt: c) Ctenocephalides felis Adulticide Assay: C. felis Dose Response
The purpose of this example was to determine the LC50 when cat fleas were contacted with a glass surface treated with sample compounds or formulations prepared as described above. Mortality of fleas was defined as follows: fleas were considered dead if they didn't move or were on their sides and unable to walk or right themselves. LC50: Lethal Concentration 50—concentration of glass surface treatment at which 50% of the cat fleas were killed. The test species was the cat flea (Ctenocephalides felis). The strain used was obtained from external suppliers as pupae and held in the laboratory under testing conditions until the adults had emerged. Fifteen (15) fleas were used in a minimum of four replicates for each dose level (total of 60 fleas per dose level). The insects were selected to be in the adult life stage, aged between 3 and 7 days post emergence.
The compounds to be tested were dissolved in acetone just prior to testing. Samples of compounds were stored in a refrigerator (5±1° C.) unless otherwise specified. During the mortality testing, the temperature was maintained at 25+1° C. Humidity was maintained at 75±5%. The base (area=159 mm^2) of a 100 mL glass Erlenmeyer (conical) flask provided the treatment surface. Flasks were pretreated with Coatasil™ glass treatment to maximise bio-availability of test compounds by preventing them from binding to the glass surface.
Six dose levels (concentrations) of test sample, in the form of a serial dilution, were derived from a pilot study and covered a range that produced very low to very high mortality. The base of the 100 mL Erlenmeyer flask was treated with 0.5 mL of test sample in acetone and gently swirled. This volume was sufficient to cover the base of the flask. Flasks were left to dry for 24 hours before flea exposure. Adult cat fleas were lightly anaesthetised by cooling and then placed into a sorting chamber, which allowed fleas to revive and jump into the Erlenmeyer flasks. Fifteen (15)adult cat fleas were collected in each flask. The top of the flasks were then covered in Parafilm™ and small holes made to allow gas exchange. A 0.5 mL volume of acetone was applied to the base of an Erlenmeyer flask and the testing proceeded in the same manner described above. Cat fleas in the treatment containers were held under testing conditions for 24 hours. Mortality resulting from the treatments was recorded at 8 and 24 hours.

[4] = system: cat flea (Ctenocephalides felis); experiment: whole plant or invertebrate; conditions: Ctenocephalides felis
Outline: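 Adult C. felis (3-7 days post-emergence; 15 per flask, at least 4 replicates) exposed to a glass flask base dried 24 h after coating with compound in acetone at 1.26 μg/cm^2. Held at 25±1 °C, 75±5% humidity; mortality (immobile or unable to right) scored at 8, 24 and/or 48 h as percentage.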

[5] = 8 h, read-out: C. felis Mortality (%) 8 h, 8 h, Laboratory 1 A data
[6] = 24 h, read-out: C. felis Mortality (%) 24 h, 24 h, Laboratory 1 A data
[7] = 8 h, read-out: C. felis Mortality (%) 8 h, 8 h, Laboratory 2 B data
[8] = 24 h, read-out: C. felis Mortality (%) 24 h, 24 h, Laboratory 2 B data
[9] = 8 h, read-out: Ctenocephalides felis Mortality (%) 8 h
[10] = 24 h, read-out: Ctenocephalides felis Mortality (%) 24 h
[11] = 48 h, read-out: Ctenocephalides felis Mortality (%) 48 h

Row | Compound | R. sanguineus Mortality (%) 48 h [1] [%] | mortality at 1.26 µg/cm2, 1.26 µg/cm2 [4, 7] [%] | mortality at 1.26 µg/cm2, 1.26 µg/cm2 [4, 8] [%] | further results
1 | CC/C(=N\OCc1ccccc1C(F)(F)F)c1cc(Cl)ccc1NS(=O)(=O)C(F)(F)F [Compound 6] | 82 |  |  | IC99 [2]: 1.3 µg/mL; C. felis LC50 ([3]; Laboratory 1 C data): 0.1 μg/cm^2; C. felis LC50 ([3]; Laboratory 2 D data): 0.03 μg/cm^2; mortality at 1.26 µg/cm2, 1.26 µg/cm2 [4, 5]: 69%; mortality at 1.26 µg/cm2, 1.26 µg/cm2 [4, 6]: 96%
2 | CC/C(=N\OCc1ccc(Br)cc1)c1cc(Cl)ccc1NS(=O)(=O)C(F)(F)F [Compound 75] | 77 |  |  | IC99 [2]: 0.9 µg/mL; C. felis LC50 ([3]; Laboratory 1 C data): 0.3 μg/cm^2; mortality at 1.26 µg/cm2, 1.26 µg/cm2 [4, 5]: 37%; mortality at 1.26 µg/cm2, 1.26 µg/cm2 [4, 6]: 78%
3 | CC/C(=N\OCc1ccc(C(F)(F)F)cc1C(F)(F)F)c1cc(Cl)ccc1NS(=O)(=O)C(F)(F)F [Compound 76, N-{2-[1-(2,4-bistrifluoromethylbenzyloxyimino)propyl]-4-chlorophenyl}trifluoromethanesulfonamide] | 80 |  |  | IC99 [2]: 0.3 µg/mL; C. felis LC50 ([3]; Laboratory 1 C data): 0.2 μg/cm^2; C. felis LC50 ([3]; Laboratory 2 D data): 0.05 μg/cm^2; mortality at 1.26 µg/cm2, 1.26 µg/cm2 [4, 5]: 100%
4 | CCO/N=C(\c1ccccc1)c1cc(Cl)ccc1NS(=O)(=O)C(F)(F)F [Compound 178, N-[4-chloro-2-(ethoxyiminophenylmethyl)phenyl]trifluoromethanesulfonamide] | 85 |  |  | C. felis LC50 ([3]; Laboratory 1 C data): 0.3 μg/cm^2; mortality at 1.26 µg/cm2, 1.26 µg/cm2 [4, 6]: 96%
5 | CC/C(=N\OCc1cccnc1)c1cc(Cl)ccc1NS(=O)(=O)C(F)(F)F [Compound 206] | 52 | 97 | 100 | 
6 | O=S(=O)(Nc1ccc(Cl)cc1/C(=N/OCC1CCCCC1)C1CCCCC1)C(F)(F)F [Compound 209] | 22 | 38 | 93 | 
7 | O=S(=O)(Nc1ccc(Cl)cc1/C(=N/OC1CCCC1)C1CCCCC1)C(F)(F)F [Compound 211] | 90 | 46 | 100 | 
8 | O=S(=O)(Nc1ccc(Cl)cc1/C(=N/OC1CCCCC1)C1CCCCC1)C(F)(F)F [Compound 212] | 57 | 24 | 100 | 
9 | CCO/N=C(/c1cc(Cl)ccc1NS(=O)(=O)C(F)(F)F)C1CCCCC1 [Compound 213] | 90 | 53 | 100 | 
10 | CC/C(=N\Oc1ccc(F)cc1)c1ccc(C(F)(F)F)cc1NS(=O)(=O)C(F)(F)F [Compound 214] | 20 | 98 | 100 | 
11 | CC(C)/C(=N\Oc1ccc(F)cc1)c1cc(Cl)ccc1NS(=O)(=O)C(F)(F)F [Compound 216] | 72 | 97 | 100 | 
12 | C/C(=N\OCC1CCCCC1)c1ccc(C(F)(F)F)cc1NS(=O)(=O)C(F)(F)F [Compound 217] | 30 | 46 | 90 | 
13 | C/C(=N\OCc1ccc(Cl)cc1)c1ccc(C(F)(F)F)cc1NS(=O)(=O)C(F)(F)F [Compound 218] | 75 | 90 | 100 | 
14 | C/C(=N\OCc1ccc(C(F)(F)F)cc1)c1ccc(C(F)(F)F)cc1NS(=O)(=O)C(F)(F)F [Compound 219] | 60 | 69 | 100 | 
15 | CC/C(=N\OCc1ccc(Cl)cc1)c1ccc(C(F)(F)F)cc1NS(=O)(=O)C(F)(F)F [Compound 220] | 62 | 54 | 100 | 
16 | CC/C(=N\OCc1ccc(C(F)(F)F)cc1)c1ccc(C(F)(F)F)cc1NS(=O)(=O)C(F)(F)F [Compound 221] | 67 | 44 | 100 | 
17 | CC/C(=N\OCC1CCCCC1)c1ccc(C(F)(F)F)cc1NS(=O)(=O)C(F)(F)F [Compound 222] | 32 | 27 | 96 | 
18 | CCC(O/N=C(\C)c1cc(Cl)ccc1NS(=O)(=O)C(F)(F)F)c1ccccc1 (stereo not shown) [Compound 255] |  | 1 | 100 | mortality at 5 µg/tick [1]: 22%
19 | CC/C(=N\OC(C)c1ccc(Cl)cc1)c1cc(Cl)ccc1NS(=O)(=O)C(F)(F)F (stereo not shown) [Compound 257] |  | 5 | 96 | mortality at 5 µg/tick [1]: 40%
20 | CCCCc1cc(-c2cc(Cl)ccc2NS(=O)(=O)C(F)(F)F)no1 [Compound 291] |  |  |  | Rhipicephalus sanguineus Mortality (%) 24 h [1]: 67%; mortality at 1.26 µg/cm2 [4, 9]: 91%; mortality at 1.26 µg/cm2 [4, 10]: 100%
21 | O=S(=O)(Nc1ccc(Cl)cc1-c1ccon1)C(F)(F)F [Compound 293] |  |  |  | Rhipicephalus sanguineus Mortality (%) 24 h [1]: 80%; mortality at 1.26 µg/cm2 [4, 9]: 60%; mortality at 1.26 µg/cm2 [4, 10]: 100%
22 | CCOCN(c1ccc(Cl)cc1/C(CC)=N/OCc1ccc(Cl)cc1)S(=O)(=O)C(F)(F)F [Compound 302] |  |  |  | Rhipicephalus sanguineus Mortality (%) 24 h [1]: 5%; mortality at 1.26 µg/cm2 [4, 10]: 3%; mortality at 1.26 µg/cm2 [4, 11]: 82%
23 | CC/C(=N\OCc1ccc(Cl)cc1)c1cc(Cl)ccc1N(COC(=O)C(C)(C)C)S(=O)(=O)C(F)(F)F [Compound 303] |  |  |  | Rhipicephalus sanguineus Mortality (%) 24 h [1]: 2%; mortality at 1.26 µg/cm2 [4, 10]: 0%; mortality at 1.26 µg/cm2 [4, 11]: 76%
24 | CC/C(=N\OCc1ccc(Cl)cc1)c1cc(Cl)ccc1N(C(C)=O)S(=O)(=O)C(F)(F)F [Compound 307, N-acetyl-N-{4-chloro-2-[1-(4-chlorobenzyloxyimino)propyl]phenyl}trifluoromethanesulfonamide] |  |  |  | Rhipicephalus sanguineus Mortality (%) 24 h [1]: 5%; mortality at 1.26 µg/cm2 [4, 10]: 10%; mortality at 1.26 µg/cm2 [4, 11]: 98%
25 | CC(=O)N(c1ccc(Cl)cc1/C(C)=N/Oc1ccc(F)cc1)S(=O)(=O)C(F)(F)F [Compound 308] |  |  |  | Rhipicephalus sanguineus Mortality (%) 24 h [1]: 7%; mortality at 1.26 µg/cm2 [4, 9]: 29%; mortality at 1.26 µg/cm2 [4, 10]: 100%
26 | CCOC(=O)N(c1ccc(Cl)cc1/C(C)=N/Oc1ccc(F)cc1)S(=O)(=O)C(F)(F)F [Compound 310, N-carbonylethoxy-N-{4-chloro-2-[1-(4-fluorophenoxyimino)ethyl]phenyl}trifluoromethanesulfonamide] |  |  |  | Rhipicephalus sanguineus Mortality (%) 24 h [1]: 52%; mortality at 1.26 µg/cm2 ([4]; 8 h, single concentration 1.26 μg/cm^2 on treated glass, adult fleas, Laboratory 2 B data, read-out: Ctenocephalides felis Mortality (%) 8 h): 56%; mortality at 1.26 µg/cm2 ([4]; 24 h, single concentration 1.26 μg/cm^2 on treated glass, adult fleas, Laboratory 2 B data, read-out: Ctenocephalides felis Mortality (%) 24 h): 100%
